Test results published in PMC12300041, “Tricyclic Isatin Derivatives as Anti-Inflammatory Compounds with High Kinase Binding Affinity” (Molecules, 2025).

Legend:
Test in all cases: KINOMEscan
Type in all cases: binding
GRK1 = molecular target: T1, GRK1 (Homo sapiens, UniProt Q15835)
T1 construct: purchased Eurofins DiscoverX KINOMEscan
Method in brief: (§1)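 Active-site competition format. Unbound kinase fraction measured by affinity-ligand capture plus qPCR after 1 h at RT. Kd from 12-point half-log titration, maximum 33 μM.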

ABL1-non-P = molecular target: T2, ABL1-non-P (Homo sapiens, UniProt P00519)
T2 construct: purchased Eurofins DiscoverX KINOMEscan
Method in brief: as §1

MERTK = molecular target: T3, MERTK (Homo sapiens, UniProt Q12866)
T3 construct: purchased Eurofins DiscoverX KINOMEscan
Method in brief: as §1

TGFBR2 = molecular target: T4, TGFBR2 (Homo sapiens, UniProt P37173)
T4 construct: purchased Eurofins DiscoverX KINOMEscan
Method in brief: (§2)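 Competition binding run for 1 h at room temperature; kinase left unbound by compound was captured on an immobilized affinity ligand and quantified by qPCR. Kd was taken from a 12-point half-log dilution series with a 33 μM top concentration.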

[1] = molecular target: T5, RPS6KA5 (Kin. Dom.2-C-term.) (Homo sapiens, UniProt O75582)
T5 construct: RPS6KA5 (Kin. Dom.2-C-term.); purchased Eurofins DiscoverX KINOMEscan
Method in brief: as §2

BRAF = molecular target: T6, BRAF (Homo sapiens, UniProt P15056)
T6 construct: purchased Eurofins DiscoverX KINOMEscan
Method in brief: as §2

BIKE = molecular target: T7, BIKE (Homo sapiens, UniProt Q9NSY1)
T7 construct: purchased Eurofins DiscoverX KINOMEscan
Method in brief: as §2

ROCK1 = molecular target: T8, ROCK1 (Homo sapiens, UniProt Q13464)
T8 construct: purchased Eurofins DiscoverX KINOMEscan
Method in brief: as §1

CDK4-cyclinD3 = molecular target: T9, CDK4-cyclinD3 (Homo sapiens, UniProt P11802)
T9 construct: purchased Eurofins DiscoverX KINOMEscan
Method in brief: as §1

MAK = molecular target: T10, MAK (Homo sapiens, UniProt P20794)
T10 construct: purchased Eurofins DiscoverX KINOMEscan
Method in brief: as §1

GRK3 = molecular target: T11, GRK3 (Homo sapiens, UniProt P35626)
T11 construct: purchased Eurofins DiscoverX KINOMEscan
Method in brief: as §1

PIKFYVE = molecular target: T12, PIKFYVE (Homo sapiens, UniProt Q9Y2I7)
T12 construct: purchased Eurofins DiscoverX KINOMEscan
Method in brief: as §1

STK33 = molecular target: T13, STK33 (Homo sapiens, UniProt Q9BYT3)
T13 construct: purchased Eurofins DiscoverX KINOMEscan
Method in brief: as §1

[2] = molecular target: T14, RSK1 (Kin. Dom.2-C-term.) (Homo sapiens, UniProt Q15418)
T14 construct: RSK1 (Kin. Dom.2-C-term.); purchased Eurofins DiscoverX KINOMEscan
Method in brief: as §1

INSR = molecular target: T15, INSR (Homo sapiens, UniProt P06213)
T15 construct: purchased Eurofins DiscoverX KINOMEscan
Method in brief: as §2

DDR1 = molecular target: T16, DDR1 (Homo sapiens, UniProt Q08345)
T16 construct: purchased Eurofins DiscoverX KINOMEscan
Method in brief: as §2

p38-α = molecular target: T17, p38-α (Homo sapiens, UniProt Q16539)
T17 construct: purchased Eurofins DiscoverX KINOMEscan
Method in brief: as §1

LIMK2 = molecular target: T18, LIMK2 (Homo sapiens, UniProt P53671)
T18 construct: purchased Eurofins DiscoverX KINOMEscan
Method in brief: as §1

ULK1 = molecular target: T19, ULK1 (Homo sapiens, UniProt O75385)
T19 construct: purchased Eurofins DiscoverX KINOMEscan
Method in brief: as §1

PFTK1 = molecular target: T20, PFTK1 (Homo sapiens, UniProt O94921)
T20 construct: purchased Eurofins DiscoverX KINOMEscan
Method in brief: as §2

CDK5 = molecular target: T21, CDK5 (Homo sapiens, UniProt Q00535)
T21 construct: purchased Eurofins DiscoverX KINOMEscan
Method in brief: as §1

MST1 = molecular target: T22, MST1 (Homo sapiens, UniProt Q13043)
T22 construct: purchased Eurofins DiscoverX KINOMEscan
Method in brief: as §1

AMPK-α1 = molecular target: T23, AMPK-α1 (Homo sapiens, UniProt Q13131)
T23 construct: purchased Eurofins DiscoverX KINOMEscan
Method in brief: as §2

[3] = molecular target: T24, RSK3 (Kin. Dom.2-C-term.) (Homo sapiens, UniProt Q15349)
T24 construct: RSK3 (Kin. Dom.2-C-term.); purchased Eurofins DiscoverX KINOMEscan
Method in brief: as §1

PRKCH = molecular target: T25, PRKCH (Homo sapiens, UniProt P24723)
T25 construct: purchased Eurofins DiscoverX KINOMEscan
Method in brief: as §2

MEK3 = molecular target: T26, MEK3 (Homo sapiens, UniProt P46734)
T26 construct: purchased Eurofins DiscoverX KINOMEscan
Method in brief: as §1

STK35 = molecular target: T27, STK35 (Homo sapiens, UniProt Q8TDR2)
T27 construct: purchased Eurofins DiscoverX KINOMEscan
Method in brief: as §2

EPHB1 = molecular target: T28, EPHB1 (Homo sapiens, UniProt P54762)
T28 construct: purchased Eurofins DiscoverX KINOMEscan
Method in brief: as §2

SYK = molecular target: T29, SYK (Homo sapiens, UniProt P43405)
T29 construct: purchased Eurofins DiscoverX KINOMEscan
Method in brief: as §2

SNRK = molecular target: T30, SNRK (Homo sapiens, UniProt Q9NRH2)
T30 construct: purchased Eurofins DiscoverX KINOMEscan
Method in brief: as §1

HCK = molecular target: T31, HCK (Homo sapiens, UniProt P08631)
T31 construct: purchased Eurofins DiscoverX KINOMEscan
Method in brief: as §2

CDK7 = molecular target: T32, CDK7 (Homo sapiens, UniProt P50613)
T32 construct: purchased Eurofins DiscoverX KINOMEscan
Method in brief: as §1

PRKCE = molecular target: T33, PRKCE (Homo sapiens, UniProt Q02156)
T33 construct: purchased Eurofins DiscoverX KINOMEscan
Method in brief: as §2

IKK-β = molecular target: T34, IKK-β (Homo sapiens, UniProt O14920)
T34 construct: purchased Eurofins DiscoverX KINOMEscan
Method in brief: as §2

YES = molecular target: T35, YES (Homo sapiens, UniProt P07947)
T35 construct: purchased Eurofins DiscoverX KINOMEscan
Method in brief: as §1

PLK3 = molecular target: T36, PLK3 (Homo sapiens, UniProt Q9H4B4)
T36 construct: purchased Eurofins DiscoverX KINOMEscan
Method in brief: as §2

ALK (C1156Y) = molecular target: T37, ALK (C1156Y) (Homo sapiens, UniProt Q9UM73, C1156Y)
T37 construct: purchased Eurofins DiscoverX KINOMEscan
Method in brief: as §1

PIK3CD = molecular target: T38, PIK3CD (Homo sapiens, UniProt O00329)
T38 construct: purchased Eurofins DiscoverX KINOMEscan
Method in brief: as §1

QSK = molecular target: T39, QSK (Homo sapiens, UniProt Q9Y2K2)
T39 construct: purchased Eurofins DiscoverX KINOMEscan
Method in brief: as §1

T28 sequence (P54762 18-984): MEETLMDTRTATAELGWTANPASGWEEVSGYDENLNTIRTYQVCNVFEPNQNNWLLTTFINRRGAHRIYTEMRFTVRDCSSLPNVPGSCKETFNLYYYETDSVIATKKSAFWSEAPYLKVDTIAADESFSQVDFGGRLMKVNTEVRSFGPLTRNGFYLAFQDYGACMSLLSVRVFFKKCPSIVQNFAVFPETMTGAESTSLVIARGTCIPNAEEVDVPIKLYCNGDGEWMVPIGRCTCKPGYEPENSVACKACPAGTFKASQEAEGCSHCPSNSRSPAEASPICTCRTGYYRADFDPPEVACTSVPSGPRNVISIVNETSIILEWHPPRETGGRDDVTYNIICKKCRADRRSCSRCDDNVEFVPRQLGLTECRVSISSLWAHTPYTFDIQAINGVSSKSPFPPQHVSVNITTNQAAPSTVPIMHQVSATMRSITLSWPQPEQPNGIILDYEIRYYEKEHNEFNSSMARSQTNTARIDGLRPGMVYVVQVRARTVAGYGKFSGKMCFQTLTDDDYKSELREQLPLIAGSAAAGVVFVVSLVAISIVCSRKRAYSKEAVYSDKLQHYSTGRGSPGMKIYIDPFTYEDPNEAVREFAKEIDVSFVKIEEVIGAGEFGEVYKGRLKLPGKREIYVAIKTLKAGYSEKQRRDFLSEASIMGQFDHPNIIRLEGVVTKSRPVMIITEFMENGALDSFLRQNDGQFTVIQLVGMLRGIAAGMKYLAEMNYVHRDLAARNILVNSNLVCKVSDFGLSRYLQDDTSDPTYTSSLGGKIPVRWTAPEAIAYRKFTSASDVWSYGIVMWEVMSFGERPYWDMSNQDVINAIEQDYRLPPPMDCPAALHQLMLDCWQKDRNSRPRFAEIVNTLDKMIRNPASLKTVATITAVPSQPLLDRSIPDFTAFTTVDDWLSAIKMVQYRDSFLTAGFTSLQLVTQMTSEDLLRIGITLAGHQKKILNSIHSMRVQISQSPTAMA
T31 sequence (P08631 whole entry): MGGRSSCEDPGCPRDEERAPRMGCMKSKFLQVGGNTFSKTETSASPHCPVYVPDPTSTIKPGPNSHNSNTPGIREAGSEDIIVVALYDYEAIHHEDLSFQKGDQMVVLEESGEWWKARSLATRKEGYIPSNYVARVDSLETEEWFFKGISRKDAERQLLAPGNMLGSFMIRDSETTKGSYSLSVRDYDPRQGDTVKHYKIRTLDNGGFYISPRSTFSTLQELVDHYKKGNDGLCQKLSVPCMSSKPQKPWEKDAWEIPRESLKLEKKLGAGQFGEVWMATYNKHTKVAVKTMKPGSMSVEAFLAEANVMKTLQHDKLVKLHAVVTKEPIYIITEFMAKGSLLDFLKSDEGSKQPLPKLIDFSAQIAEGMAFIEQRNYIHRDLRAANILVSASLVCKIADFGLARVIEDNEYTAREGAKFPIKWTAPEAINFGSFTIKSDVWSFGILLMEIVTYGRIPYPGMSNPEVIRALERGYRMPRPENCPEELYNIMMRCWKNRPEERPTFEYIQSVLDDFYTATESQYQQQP
T3 sequence (Q12866 21-999): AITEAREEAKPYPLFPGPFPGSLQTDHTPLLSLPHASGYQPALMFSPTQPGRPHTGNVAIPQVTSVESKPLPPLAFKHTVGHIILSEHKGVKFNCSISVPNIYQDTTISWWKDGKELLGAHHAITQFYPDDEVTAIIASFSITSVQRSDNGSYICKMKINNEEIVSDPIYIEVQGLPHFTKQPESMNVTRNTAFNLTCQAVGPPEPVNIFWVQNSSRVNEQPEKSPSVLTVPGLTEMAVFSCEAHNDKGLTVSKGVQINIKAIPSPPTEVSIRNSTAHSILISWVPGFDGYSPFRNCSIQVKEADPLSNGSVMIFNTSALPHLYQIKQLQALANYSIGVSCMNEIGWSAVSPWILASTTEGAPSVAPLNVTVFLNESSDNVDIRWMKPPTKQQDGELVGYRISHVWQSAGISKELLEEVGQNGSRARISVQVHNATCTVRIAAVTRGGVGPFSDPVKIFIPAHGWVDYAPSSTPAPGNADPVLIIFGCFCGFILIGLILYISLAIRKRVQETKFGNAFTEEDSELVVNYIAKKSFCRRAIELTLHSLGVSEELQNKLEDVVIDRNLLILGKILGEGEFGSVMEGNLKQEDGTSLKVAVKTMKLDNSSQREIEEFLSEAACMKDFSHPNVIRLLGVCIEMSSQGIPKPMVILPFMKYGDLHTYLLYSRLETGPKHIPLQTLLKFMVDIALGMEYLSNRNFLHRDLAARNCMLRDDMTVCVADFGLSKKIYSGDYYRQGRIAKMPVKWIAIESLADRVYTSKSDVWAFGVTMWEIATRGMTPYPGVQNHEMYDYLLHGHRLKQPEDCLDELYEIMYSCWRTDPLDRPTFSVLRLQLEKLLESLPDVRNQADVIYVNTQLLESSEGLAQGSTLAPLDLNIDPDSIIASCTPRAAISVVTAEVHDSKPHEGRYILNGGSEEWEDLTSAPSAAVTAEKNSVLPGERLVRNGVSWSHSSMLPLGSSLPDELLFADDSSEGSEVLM
T33 sequence (Q02156 whole entry): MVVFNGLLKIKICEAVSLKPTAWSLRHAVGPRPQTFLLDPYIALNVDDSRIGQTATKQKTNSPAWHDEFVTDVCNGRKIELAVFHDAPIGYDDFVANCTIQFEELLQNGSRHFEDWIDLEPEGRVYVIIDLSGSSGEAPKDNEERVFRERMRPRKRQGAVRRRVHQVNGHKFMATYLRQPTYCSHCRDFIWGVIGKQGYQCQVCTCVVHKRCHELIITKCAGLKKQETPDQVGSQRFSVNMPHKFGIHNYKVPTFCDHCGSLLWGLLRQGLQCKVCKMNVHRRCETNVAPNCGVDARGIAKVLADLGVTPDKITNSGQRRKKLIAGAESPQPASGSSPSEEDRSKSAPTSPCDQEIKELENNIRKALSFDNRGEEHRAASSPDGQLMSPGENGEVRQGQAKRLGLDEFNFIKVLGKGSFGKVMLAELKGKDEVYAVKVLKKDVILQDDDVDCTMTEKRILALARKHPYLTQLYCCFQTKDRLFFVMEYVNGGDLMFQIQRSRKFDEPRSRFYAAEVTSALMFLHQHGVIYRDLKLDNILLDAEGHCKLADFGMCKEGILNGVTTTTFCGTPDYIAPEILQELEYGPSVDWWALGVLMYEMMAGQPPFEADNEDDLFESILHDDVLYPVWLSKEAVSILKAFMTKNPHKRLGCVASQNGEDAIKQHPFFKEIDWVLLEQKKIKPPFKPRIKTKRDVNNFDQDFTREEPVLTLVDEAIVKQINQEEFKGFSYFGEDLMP
T9 sequence (P11802 whole entry): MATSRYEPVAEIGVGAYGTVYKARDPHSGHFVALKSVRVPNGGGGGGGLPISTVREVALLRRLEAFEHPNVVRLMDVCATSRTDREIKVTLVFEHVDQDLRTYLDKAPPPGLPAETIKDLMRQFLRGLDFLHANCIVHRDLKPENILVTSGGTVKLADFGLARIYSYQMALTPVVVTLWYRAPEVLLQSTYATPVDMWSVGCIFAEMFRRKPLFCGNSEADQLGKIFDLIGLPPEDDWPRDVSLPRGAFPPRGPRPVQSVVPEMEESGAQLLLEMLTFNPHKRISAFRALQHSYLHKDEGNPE
T9 sequence (P30281 whole entry partner): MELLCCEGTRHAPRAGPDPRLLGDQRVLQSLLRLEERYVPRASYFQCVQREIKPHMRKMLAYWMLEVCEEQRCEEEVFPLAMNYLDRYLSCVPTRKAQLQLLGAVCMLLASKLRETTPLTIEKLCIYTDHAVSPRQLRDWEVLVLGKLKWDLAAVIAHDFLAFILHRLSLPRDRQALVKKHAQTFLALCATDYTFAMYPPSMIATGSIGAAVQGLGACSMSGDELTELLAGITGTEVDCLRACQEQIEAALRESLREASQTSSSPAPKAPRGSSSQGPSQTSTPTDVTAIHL
T23 sequence (Q13131 whole entry): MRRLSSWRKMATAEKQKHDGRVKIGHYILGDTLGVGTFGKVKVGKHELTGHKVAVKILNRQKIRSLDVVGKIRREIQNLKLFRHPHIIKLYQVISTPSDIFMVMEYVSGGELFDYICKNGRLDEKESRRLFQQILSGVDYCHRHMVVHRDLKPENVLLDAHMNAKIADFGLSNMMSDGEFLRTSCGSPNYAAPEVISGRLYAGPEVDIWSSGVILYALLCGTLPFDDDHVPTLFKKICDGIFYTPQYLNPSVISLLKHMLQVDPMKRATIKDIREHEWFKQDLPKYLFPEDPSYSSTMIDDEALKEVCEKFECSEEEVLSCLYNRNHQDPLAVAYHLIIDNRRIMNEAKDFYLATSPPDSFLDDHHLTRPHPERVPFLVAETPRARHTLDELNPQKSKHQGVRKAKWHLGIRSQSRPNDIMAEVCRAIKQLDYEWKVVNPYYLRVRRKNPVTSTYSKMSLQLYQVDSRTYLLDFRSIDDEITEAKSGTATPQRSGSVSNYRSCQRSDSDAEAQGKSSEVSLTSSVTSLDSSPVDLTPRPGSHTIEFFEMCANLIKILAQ
T4 sequence (P37173 23-567): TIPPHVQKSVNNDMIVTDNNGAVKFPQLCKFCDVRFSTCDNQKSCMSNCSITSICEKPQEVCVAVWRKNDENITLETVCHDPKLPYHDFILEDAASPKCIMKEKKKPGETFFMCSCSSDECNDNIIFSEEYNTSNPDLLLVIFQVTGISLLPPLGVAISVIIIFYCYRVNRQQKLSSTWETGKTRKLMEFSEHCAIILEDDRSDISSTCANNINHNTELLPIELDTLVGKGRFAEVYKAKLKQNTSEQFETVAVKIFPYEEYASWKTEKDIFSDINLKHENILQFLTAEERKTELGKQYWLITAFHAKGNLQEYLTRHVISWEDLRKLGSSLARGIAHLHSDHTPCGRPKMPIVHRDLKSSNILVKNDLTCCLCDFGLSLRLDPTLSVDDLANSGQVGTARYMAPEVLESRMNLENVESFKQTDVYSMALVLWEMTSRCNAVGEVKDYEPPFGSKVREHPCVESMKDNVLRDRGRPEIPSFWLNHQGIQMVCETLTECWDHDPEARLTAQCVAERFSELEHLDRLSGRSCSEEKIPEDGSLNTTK

O=C1Nc2c(cc([N+](=O)[O-])c3c2CCCC3)C1=NO [Compound 5d, 3-(Hydroxyimino)-5-nitro-1,3,6,7,8,9-hexahydro-2H-benzo[g]indol-2-one]
inhibition at 10 µM (GRK1): 67% | inhibition at 10 µM (ABL1-non-P): 54% | inhibition at 10 µM (MERTK): 4% | inhibition at 10 µM (TGFBR2): 24% | inhibition at 10 µM [1]: 89.4% | inhibition at 10 µM (BRAF): 28% | inhibition at 10 µM (BIKE): 75% | inhibition at 10 µM (ROCK1): 61% | inhibition at 10 µM (CDK4-cyclinD3): 22% | inhibition at 10 µM (MAK): 5% | inhibition at 10 µM (GRK3): 77% | inhibition at 10 µM (PIKFYVE): 28% | inhibition at 10 µM (STK33): 62% | inhibition at 10 µM [2]: 60% | inhibition at 10 µM (INSR): 1% | inhibition at 10 µM (DDR1): 0% | inhibition at 10 µM (p38-α): 0% | inhibition at 10 µM (LIMK2): 0% | inhibition at 10 µM (ULK1): 15% | inhibition at 10 µM (PFTK1): 0% | inhibition at 10 µM (CDK5): 1% | inhibition at 10 µM (MST1): 32% | inhibition at 10 µM (AMPK-α1): 28% | inhibition at 10 µM [3]: 74% | inhibition at 10 µM (PRKCH): 0% | inhibition at 10 µM (MEK3): 94% | inhibition at 10 µM (STK35): 1% | inhibition at 10 µM (EPHB1): 0% | inhibition at 10 µM (SYK): 20% | inhibition at 10 µM (SNRK): 22% | inhibition at 10 µM (HCK): 20% | inhibition at 10 µM (CDK7): 95.8% | inhibition at 10 µM (PRKCE): 61% | inhibition at 10 µM (IKK-β): 50% | inhibition at 10 µM (YES): 26% | inhibition at 10 µM (PLK3): 51% | inhibition at 10 µM (ALK (C1156Y)): 43% | inhibition at 10 µM (PIK3CD): 42% | inhibition at 10 µM (QSK): 14%
